{"source": "paper PMC4258814", "about": "“Differences between murine arylamine N-acetyltransferase type 1 and human arylamine N-acetyltransferase type 2 defined by substrate specificity and inhibitor binding” (BMC Pharmacology & Toxicology, 2014)", "key": {"[1]": {"biological_target": "T1, (MOUSE)NAT2_R127L (Mus musculus, UniProt P50295, R127L)", "T1 construct": "made in house", "T1 sequence (P50295 1-290 R127L)": "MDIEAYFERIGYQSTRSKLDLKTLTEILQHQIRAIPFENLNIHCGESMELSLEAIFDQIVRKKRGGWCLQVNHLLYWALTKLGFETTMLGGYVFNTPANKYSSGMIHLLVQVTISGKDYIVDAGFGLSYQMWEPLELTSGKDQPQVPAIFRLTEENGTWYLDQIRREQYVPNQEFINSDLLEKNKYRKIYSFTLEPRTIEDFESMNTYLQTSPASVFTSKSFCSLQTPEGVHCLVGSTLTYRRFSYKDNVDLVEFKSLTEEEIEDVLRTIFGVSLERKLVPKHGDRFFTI", "assay": "Substrate specific N-acetylation profile", "assay_type": "biochemical", "details": "(MOUSE)NAT2 R127L; substrate 500 μM; relative to substrate with highest specific activity (100%); mean of 3 ± SD"}, "[2]": {"system": "(MESAU)NAT2*1", "parameters": "method as in PMID 15627487, PMID 18280460", "details": "substrate 500 μM, relative to substrate with highest specific activity (100%), mean of 3 ± SD, ref [8], [22]; cited from earlier work"}, "[3]": {"biological_target": "T2, (MOUSE)NAT2_F125S (Mus musculus, UniProt P50295, F125S)", "T2 construct": "His tag (only implied by Ni-NTA purification) (cleaved yes); made in house; host or cells: E. coli Rosetta(DE3)pLysS", "T2 sequence (P50295 1-290 F125S)": "T1 sequence (P50295 1-290 R127L) with F125S, L127R", "assay": "Substrate specific N-acetylation profile", "assay_type": "biochemical", "details": "(MOUSE)NAT2 F125S; substrate 500 μM; relative to substrate with highest specific activity (100%); mean of 3 ± SD"}, "[4]": {"biological_target": "T3, (HUMAN)NAT2*4 (Homo sapiens, UniProt P11245)", "T3 construct": "made in house", "T3 sequence (P11245 1-290)": "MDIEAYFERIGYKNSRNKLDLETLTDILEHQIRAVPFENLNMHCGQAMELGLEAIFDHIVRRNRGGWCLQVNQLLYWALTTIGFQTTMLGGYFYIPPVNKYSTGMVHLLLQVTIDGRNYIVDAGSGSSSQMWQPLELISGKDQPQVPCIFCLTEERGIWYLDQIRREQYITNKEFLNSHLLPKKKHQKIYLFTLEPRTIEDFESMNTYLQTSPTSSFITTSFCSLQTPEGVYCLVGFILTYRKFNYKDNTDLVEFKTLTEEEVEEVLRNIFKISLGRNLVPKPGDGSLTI", "parameters": "method as in PMID 15627487, PMID 18280460", "details": "substrate 500 μM, relative to substrate with highest specific activity (100%), mean of 3 ± SD, ref [8], [22]; cited from earlier work"}, "[5]": {"biological_target": "T4, (MOUSE)NAT2_R127G (Mus musculus, UniProt P50295, R127G)", "T4 construct": "made in house", "T4 sequence (P50295 1-290 R127G)": "T1 sequence (P50295 1-290 R127L) with L127G", "assay": "Substrate specific N-acetylation profile", "assay_type": "biochemical", "details": "(MOUSE)NAT2 R127G; substrate 500 μM; relative to substrate with highest specific activity (100%); mean of 3 ± SD"}, "[6]": {"details": "ref [56]–[61]; cited from earlier work"}, "[7]": {"biological_target": "T5, (MOUSE)NAT2*1 (Mus musculus, UniProt P50295)", "T5 construct": "made in house", "T5 sequence (P50295 1-290)": "T1 sequence (P50295 1-290 R127L) with L127R", "assay": "Substrate specific N-acetylation profile", "assay_type": "biochemical", "details": "substrate 500 μM, relative to substrate with highest specific activity (100%), mean of 3 ± SD"}, "[8]": {"biological_target": "T6, (MOUSE)NAT1*1 (Mus musculus, UniProt P50294)", "T6 construct": "The open reading frame of (MOUSE)Nat1*1 [32] was subcloned; hexa-His (N, cleaved yes); made in house; host or cells: Escherichia coli BL21(DE3)CodonPlus-RIL", "T6 sequence (P50294 1-290)": "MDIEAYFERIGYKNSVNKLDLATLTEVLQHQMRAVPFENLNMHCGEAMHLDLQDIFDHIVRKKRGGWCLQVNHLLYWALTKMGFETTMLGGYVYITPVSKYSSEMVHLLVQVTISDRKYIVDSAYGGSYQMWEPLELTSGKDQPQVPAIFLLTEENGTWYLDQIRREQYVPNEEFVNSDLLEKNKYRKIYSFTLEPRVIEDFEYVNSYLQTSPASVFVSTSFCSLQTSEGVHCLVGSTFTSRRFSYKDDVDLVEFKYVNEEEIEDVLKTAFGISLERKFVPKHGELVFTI", "assay": "Substrate specific N-acetylation profile", "assay_type": "biochemical", "details": "substrate 500 μM, relative to substrate with highest specific activity (100%), mean of 3 ± SD"}, "[9]": {"system": "(HUMAN)NAT1*4", "parameters": "method as in PMID 15627487, PMID 18280460", "details": "substrate 500 μM, relative to substrate with highest specific activity (100%), mean of 3 ± SD, ref [8], [22]; cited from earlier work"}, "[10]": {"biological_target": "T1, (MOUSE)NAT2_R127L", "parameters": "method as in PMID 23940600", "details": "in presence of (MOUSE)NAT2_R127L; ref [25]; cited from earlier work"}, "[11]": {"biological_target": "T4, (MOUSE)NAT2_R127G", "parameters": "method as in PMID 23940600", "details": "in presence of (MOUSE)NAT2_R127G; ref [25]; cited from earlier work"}, "[12]": {"system": "(MESAU)NAT2*1", "parameters": "method as in PMID 24758871", "details": "read-out: IC50 with naphthoquinone 1, AcCoA 400 μM, substrate 4ABA, ref [26]; cited from earlier work"}, "[13]": {"biological_target": "T3, (HUMAN)NAT2*4", "parameters": "method as in PMID 23940600", "details": "in presence of (HUMAN)NAT2*4; ref [25]; cited from earlier work"}, "[14]": {"biological_target": "T6, (MOUSE)NAT1*1", "parameters": "method as in PMID 20170182", "details": "in presence of (MOUSE)NAT1*1; ref [24]; cited from earlier work"}, "[15]": {"biological_target": "T5, (MOUSE)NAT2*1", "parameters": "method as in PMID 23940600, PMID 20170182", "details": "in presence of (MOUSE)NAT2*1; ref [25], [24]; cited from earlier work"}, "[16]": {"system": "(HUMAN)NAT1*4", "parameters": "method as in PMID 23940600", "details": "read-out: IC50 with naphthoquinone 1, AcCoA 400 μM, substrate 4ABA, ref [25]; cited from earlier work"}, "[17]": {"biological_target": "T5, (MOUSE)NAT2*1", "parameters": "method as in PMID 23940600, PMID 20170182", "details": "read-out: IC50 with naphthoquinone 1, AcCoA 400 μM, substrate 4ABA, ref [25], [24]; cited from earlier work"}, "[18]": {"biological_target": "T6, (MOUSE)NAT1*1", "assay": "Inhibition of NAT activity (AcCoA hydrolysis rate)", "assay_type": "biochemical", "details": "AcCoA 400 μM, substrate 5AS, 5% DMSO", "from_the_text": "(§1) The final concentration of dimethyl sulphoxide (DMSO) in reaction mixes was 5% (v/v). IC50 values were estimated using a dose–response-based regression model in Kyplot® software. Curves were fitted by least squares analysis with confidence limits of 95%."}, "[19]": {"biological_target": "T3, (HUMAN)NAT2*4", "assay": "Inhibition of NAT activity (AcCoA hydrolysis rate)", "assay_type": "biochemical", "details": "AcCoA 400 μM, substrate 2-aminofluorene, 5% DMSO", "from_the_text": "as §1"}, "[20]": {"biological_target": "T2, (MOUSE)NAT2_F125S", "assay": "Inhibition of NAT activity (AcCoA hydrolysis rate)", "assay_type": "biochemical", "details": "AcCoA 400 μM, substrate 5AS, 5% DMSO", "from_the_text": "as §1"}}, "note": "Changes are numbered by the printed parent chain. Marks after values point to notes of the source that are not given here."}
{"compound": "Cc1cc(C)nc(NS(=O)(=O)c2ccc(N)cc2)n1", "note": "[SMZ, sulfamethazine]", "values": [{"measurement": "% specific activity values", "setting": "[1]", "result": "3 ± 1", "unit": "%"}, {"measurement": "% specific activity values", "setting": "[2]", "result": "1 ± 1", "unit": "%"}, {"measurement": "% specific activity values", "setting": "[3]", "result": "1 ± 1", "unit": "%"}, {"measurement": "% specific activity values", "setting": "[4]", "result": "46 ± 1", "unit": "%"}, {"measurement": "% specific activity values", "setting": "[5]", "result": "19 ± 2", "unit": "%"}, {"measurement": "pKa(H) (NH3^+)", "setting": "[6]", "result": 2.4}, {"measurement": "pKa(H) (sulfonamide)", "setting": "[6]", "result": 7.4}, {"measurement": "% specific activity values", "setting": "[7]", "result": "4 ± 1", "unit": "%"}, {"measurement": "% specific activity values", "setting": "[8]", "result": "88 ± 6", "unit": "%"}, {"measurement": "% specific activity values", "setting": "[9]", "result": "1 ± 1", "unit": "%"}]}
{"compound": "Cc1cc(C)cc(NC2=C(NS(=O)(=O)c3ccccc3)C(=O)c3ccccc3C2=O)c1", "note": "[naphthoquinone 1, N-(3-(3,5-dimethylphenylamino)-1,4-dioxo-1,4-dihydronaphthalen-2-yl)benzenesulphonamide]", "values": [{"measurement": "λ max of naphthoquinone 1", "setting": "[10]", "result": "498^a nm"}, {"measurement": "λ max of naphthoquinone 1", "setting": "[11]", "result": "498^a nm"}, {"measurement": "IC50", "setting": "[12]", "result": 89, "unit": "µM"}, {"measurement": "λ max of naphthoquinone 1", "setting": "[13]", "result": "498^a nm"}, {"measurement": "λ max of naphthoquinone 1", "setting": "[14]", "result": "498^b nm"}, {"measurement": "λ max of naphthoquinone 1", "setting": "[15]", "result": "625^a,b nm"}, {"measurement": "IC50", "setting": "[16]", "result": 5.3, "unit": "µM"}, {"measurement": "IC50", "setting": "[17]", "result": 1.3, "unit": "µM"}, {"measurement": "IC50", "setting": "[18]", "result": 130, "unit": "µM"}, {"measurement": "IC50", "setting": "[19]", "result": "> 100", "unit": "µM"}, {"measurement": "IC50", "setting": "[20]", "result": 68.7, "unit": "µM"}]}
